# Laboratory results as given in patent US20060148712A1, “Monocyte chemoattractant activity of galectin-3” (priority 2000, published 2006).
# Legend:
# CCR-2 = biological target: T1, CCR-2 (Homo sapiens, UniProt P41597); test: Immunoprecipitation and immunoblotting with specific antibodies; format: binding
# T1 construct: Chemokine receptors expressed on monocytes include CCR-1, CCR-2, CCR-5, and CXCR-4; endogenous in cells
# human monocytes = test: Measurement of Ca2+ influx in monocytes (Indo-1 AM); format: cell-based
# Protocol: Intracellular concentrations of Ca^2+ were measured by using Indo-1 AM according to a previously described method (Lopez, et al., Cytometry 10:165-73 (1989)). Purified monocytes were resuspended in HBSS containing 1 mM Ca^2+, 1 mM Mg^2+, and 5% autologous serum, and incubated with […] Indo-1 AM for 45 min at 37° C. The cells were washed once, resuspended in the same buffer, and stimuli and inhibitors were added at the time points specified in the Figure Legends. Intracellular Ca^2+ concentration was measured by monitoring light emission at 405 and 485 nm to an excitation wavelength of 355 nm, using an AMINCO-Bowman series 2 luminescence spectrometer (Rochester, N.Y.).
# [1] = test system: cell recruitment into mouse air pouches; test: Migration assay in vivo (mouse air pouch); design: species or system Balb/c mice
# Protocol: The mouse air pouch experiments were performed according to a method described previously (Perretti, et al., J. Immunol. 151:4306-14 (1993)). Briefly, an air pouch was induced on the back of Balb/c mice by injecting 3 ml of air intradermally 2, 4, and 6 days before the experiments. Then, 1 ml of 0.9% sodium chloride (USP grade saline, Baxter Healthcare Corporation, Deerfield, Ill.) containing 1 μM galectin-3 was injected into the pouch. As positive and negative controls, 100 ng/ml of recombinant MCP-1 and diluent only, respectively, were injected. Four h afterwards, recruited cells were recovered by gently lavaging the pouch with 1 ml of PBS containing 1 mM EDTA. Cell number was determined and the distribution of leukocyte types was analyzed after cytospin preparation and Wright staining.
# CXCR-4 = biological target: T2, CXCR-4 (Homo sapiens, UniProt P61073); test: Immunoprecipitation and immunoblotting with specific antibodies; format: binding
# T2 construct: Chemokine receptors expressed on monocytes include CCR-1, CCR-2, CCR-5, and CXCR-4; endogenous in cells
# T2 sequence (P61073 whole entry): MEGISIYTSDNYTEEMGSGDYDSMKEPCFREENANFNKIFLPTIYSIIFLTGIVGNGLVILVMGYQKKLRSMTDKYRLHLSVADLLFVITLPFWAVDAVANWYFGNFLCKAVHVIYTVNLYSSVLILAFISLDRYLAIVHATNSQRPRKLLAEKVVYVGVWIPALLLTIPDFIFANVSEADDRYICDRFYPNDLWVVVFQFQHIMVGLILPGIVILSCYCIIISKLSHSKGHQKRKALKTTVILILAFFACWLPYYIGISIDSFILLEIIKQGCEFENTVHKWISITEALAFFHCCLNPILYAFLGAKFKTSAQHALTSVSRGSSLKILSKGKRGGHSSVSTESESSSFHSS
# lymphocytes = test: Lymphocyte migration in vitro; format: cell-based
# neutrophils = test: Neutrophil migration; format: cell-based
# [2] = test system: human peripheral blood monocytes; test: Monocyte migration assay in vitro (96-well micro Boyden chamber); format: cell-based
# From the text: Human monocytes were purified from venous blood of normal volunteers essentially as described previously (Nakagawara, et al., J. Clin. Invest. 68:1243-53 (1981)). In brief, after erythrocytes were sedimented by addition of 6% dextran saline solution (I part to 5 parts heparinized blood), the leukocytes were collected, washed twice, and resuspended in Ca^2+ and Mg^2+-free HBSS containing 5% autologous serum. Mononuclear cells were acquired by centrifugation of the leukocyte suspension on Ficoll Paque at 1,500 rpm for 15 min. The cells were resuspended in RPMI 1640 containing 10% autologous serum and allowed to adhere to sterile tissue culture plates for 30 min in a humidified incubator at 5% CO2 and 37° C. After incubation, non-adherent cells were removed by washing the plates three times with PBS at 37° C. […] To detach and harvest the adhered monocytes, 1 mM EDTA-PBS containing 5% serum was added and the plates were incubated on ice for 30 min. The monocytes were washed twice with HBSS and resuspended in RPMI 1640 with 0.1% autologous serum for the migration assay. The viability of monocytes was determined by trypan blue exclusion and was more than 98%. In some experiments, monocytes were purified according to another method using a Percoll discontinuous gradient described previously (Chuluyan & Issekutz, J. Clin. Invest. 92:2768-77 (1993)).
# Monocyte migration was examined by using 96-well micro Boyden chambers with 5 μm-pore size filters (Neuro Probe, Inc., Gaithersburg, Md.) as described previously (Falk, et al., J. Immunol. Meth. 33:239-47 (1980)), Chertov, et al., J. Biol. Chem. 271:2935-40 (1996)). Briefly, after the indicated concentrations of galectin-3 in RPMI 1640 were applied to the lower chambers, purified monocyte suspensions (2.5-5.0×10^4/well) were applied to the upper chambers. After incubation of the chambers for 1 h in a humidified incubator at 5% CO2 and 37° C., the filters were washed once with PBS and processed with Wright stain. The number of monocytes on the bottom side of the filters was counted in 5 to 10 high-power fields. Monocyte migration was calculated from the average numbers of the counted cells and expressed as % of input cells in a well.
# In assays using inhibitory reagents, the purified monocytes were pretreated with or without the indicated concentrations of B2C10 (Liu, et al., Biochemistry 35:[…] (1996)) or anti-DNP IgG1 (Liu, et al., J. Immunol. 124:2728-31 (1980)) as an isotype-matched control mAb, galectin-3C, or PTX at 37° C. for 30 min. Then the cells were applied to the upper chambers in the presence of these inhibitors at the same concentrations used in the pretreatment. In the assays using lactose and sucrose, the sugars were added to the lower chambers at the initiation of the migration assay.
# [3] = 1 μM galectin-3, 1 ml into pouch, 4 h, p<0.05, n=4
# T1 sequence (P41597 whole entry): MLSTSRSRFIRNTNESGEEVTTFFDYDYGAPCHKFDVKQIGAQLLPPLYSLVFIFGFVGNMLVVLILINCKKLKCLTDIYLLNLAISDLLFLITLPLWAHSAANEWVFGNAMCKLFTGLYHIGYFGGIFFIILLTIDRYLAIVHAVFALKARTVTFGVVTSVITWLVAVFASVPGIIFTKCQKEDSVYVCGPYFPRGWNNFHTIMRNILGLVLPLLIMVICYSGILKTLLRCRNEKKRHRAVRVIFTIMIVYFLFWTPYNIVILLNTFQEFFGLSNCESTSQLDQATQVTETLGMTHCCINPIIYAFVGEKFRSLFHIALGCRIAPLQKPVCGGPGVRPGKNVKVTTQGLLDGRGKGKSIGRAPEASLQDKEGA
substance,measurement,setting,value
"galectin-3: Recombinant human galectin-3, a 26 kDa beta-galactoside-binding protein (lectin)",Interaction with chemokine receptor,CCR-2,Neither have interactions between galectin-3 and these four chemokine receptors been detected
same,Induction of Ca2+ influx in human monocytes,human monocytes; 1 μM galectin-3,induced a Ca^2+ influx
same,Extent of Ca2+ influx compared with MCP-1,"human monocytes; 1 μM galectin-3 vs 100 ng/ml MCP-1, three separate experiments",lower than that by the chemokine
same,Cross-desensitization of Ca2+ influx with monocyte-reactive chemokines,"human monocytes; 1 μM galectin-3 vs MCP-1, MIP-1α, SDF-1α at 100 ng/ml, either order",no cross-desensitization
same,Induction of Ca2+ influx in human monocytes,human monocytes; galectin-3 concentrations lower than 1 μM,not
same,Increase in number of monocytes in the air pouch over vehicle (saline),[1]; [3],11.6 times
same,Increase in number of neutrophils in the air pouch over vehicle (saline),[1]; [3],8.21 times
same,Number of eosinophils in the air pouch,"[1]; 1 μM galectin-3, 4 h, p=0.112",not augmented significantly
same,Number of lymphocytes in the air pouch,"[1]; 1 μM galectin-3, 4 h, p=0.309",not augmented significantly
same,Interaction with chemokine receptor,CXCR-4,Neither have interactions between galectin-3 and these four chemokine receptors been detected
same,Migration of lymphocytes in vitro,lymphocytes,does not induce migration of lymphocytes
same,Concentration required for maximum migration of neutrophils compared with monocytes,neutrophils,Lower concentrations
same,Monocyte migration (% of input cells),"[2]; 10 nM galectin-3, subsequent experiments n=21, control 4.26±1.3%, p<0.001",7.01±2.1%
same,Monocyte migration (% of input cells),"[2]; 100 nM galectin-3 in lower chamber, n=4 experiments, diluent control 3.54±2.2%",6.25±1.3%
same,Monocyte migration (% of input cells),"[2]; 300 nM galectin-3 in lower chamber, n=4 experiments, diluent control 3.54±2.2%",9.8±0.33%
same,Monocyte migration with galectin-3 in both chambers,[2]; 1 μM galectin-3 added to both chambers,no significant increase in monocyte migration over the background
same,Monocyte migration (% of input cells),"[2]; 1 μM galectin-3 in lower chamber, n=4 experiments, diluent control 3.54±2.2%",12.4±1.2%
same,Effect on monocyte migration compared with MCP-1,[2]; 1 μM galectin-3 vs MCP-1 at 100 ng/ml (11.6 nM),comparable to that of human recombinant MCP-1
same,Monocyte migration (% migrated cells of the total cells),"[2]; checkerboard: galectin-3 above 0 nM, below 10 nM",8.66 ± 0.22%
same,Monocyte migration (% migrated cells of the total cells),"[2]; checkerboard: galectin-3 above 0 nM, below 100 nM",9.96 ± 0.72%
same,Monocyte migration (% migrated cells of the total cells),"[2]; checkerboard: galectin-3 above 0 nM, below 1000 nM",13.1 ± 1.33%
same,Monocyte migration (% migrated cells of the total cells),"[2]; checkerboard: galectin-3 above 10 nM, below 0 nM",7.55 ± 0.79%
same,Monocyte migration (% migrated cells of the total cells),"[2]; checkerboard: galectin-3 above 10 nM, below 10 nM",8.88 ± 1.09%
same,Monocyte migration (% migrated cells of the total cells),"[2]; checkerboard: galectin-3 above 10 nM, below 100 nM",9.23 ± 2.23%
same,Monocyte migration (% migrated cells of the total cells),"[2]; checkerboard: galectin-3 above 10 nM, below 1000 nM",11.5 ± 3.49%
same,Monocyte migration (% migrated cells of the total cells),"[2]; checkerboard: galectin-3 above 100 nM, below 0 nM",10.7 ± 0.86%
same,Monocyte migration (% migrated cells of the total cells),"[2]; checkerboard: galectin-3 above 100 nM, below 10 nM",11.4 ± 2.11%
same,Monocyte migration (% migrated cells of the total cells),"[2]; checkerboard: galectin-3 above 100 nM, below 100 nM",10.5 ± 2.10%
same,Monocyte migration (% migrated cells of the total cells),"[2]; checkerboard: galectin-3 above 100 nM, below 1000 nM",12.5 ± 2.87%
same,Monocyte migration (% migrated cells of the total cells),"[2]; checkerboard: galectin-3 above 1000 nM, below 0 nM",3.30 ± 2.82%
same,Monocyte migration (% migrated cells of the total cells),"[2]; checkerboard: galectin-3 above 1000 nM, below 10 nM",3.25 ± 3.11%
same,Monocyte migration (% migrated cells of the total cells),"[2]; checkerboard: galectin-3 above 1000 nM, below 100 nM",4.55 ± 3.69%
same,Monocyte migration (% migrated cells of the total cells),"[2]; checkerboard: galectin-3 above 1000 nM, below 1000 nM",3.50 ± 2.41%
same,Nature of the effect on monocytes in vitro,[2]; high concentrations (1 μM),chemotactic
same,Nature of the effect on monocytes in vitro,[2]; low concentrations (10 and 100 nM),chemokinetic
